Earlier results as cited in patent US20220288059A1, “NANOENCAPSULATED CANNABIDIOL” (Aphios Corporation, priority 2020, published 2022).

How the values were obtained:
rhesus monkeys = settings: intravenously
rats = settings: i.v.
mice [1] = settings: intravenously
dogs = settings: intravenously
mice [2] = system: mice

C=C(C)[C@@H]1CCC(C)=C[C@H]1c1c(O)cc(CCCCC)cc1O [CBD, cannabidiol]
LD50 in rhesus monkeys (rhesus monkeys): 212 mg/kg
anti-nociceptive effect, tail-flick test (Wistar rats): dose-dependent anti-nociceptive effects
toxicity relative to Δ9-THC by LD50 (rats): less toxic than Δ9-THC
LD50 in mice (mice [1]): 50 mg/kg
LD50 in dogs (dogs): 254 mg/kg
inhibition of cue-induced heroin-seeking behaviors (mice [2]): effectively inhibit cue-induced heroin-seeking behaviors
